According to US20030149306A1, “Process for the preparation of polymorph of 4-(aryl)-1,2,3,4-tetrahydro-1-naphthale-namine derivative” (priority 2000, published 2003):
Entries after “also recorded” stand apart in the source; their conditions may differ. Structures can show the parent of a compound that is named as a salt. Blank lines part the entries; values can stand above or below the compound they belong to.

Legend:
[1] = from a pharmaceutical formulation; cited from earlier work
[2] = compared among Forms I to V; cited from earlier work
[3] = as compared to Form I; cited from earlier work
[4] = solid-state stability of Form V (Infrared spectrum KBr and X-ray diffractogram) under storage, grinding and heating; format: physicochemical
Description: For example, it was stable for 3 months at 40° C. and 75% relative humidity or when subjected to grinding in a pestle and mortar or when heated upto 140° C. for 3 hours.
No change in Infrared spectrum (KBr) and X-ray diffractogram was observed after 3 months at 40° C. and 75% relative humidity or when subjected to grinding in a pestle and mortar or when heated upto 140° C. for 3 hours.

SMILES: CN[C@H]1CC[C@@H](c2ccc(Cl)c(Cl)c2)c2ccccc21 [Form I, hydrochloride salt of (1S,4S) N-methyl-4-(3,4-dichlorophenyl)-1,2,3,4-tetrahydro-1-naphthalenamine]
- dissolution rate with respect to the desired bioavailability [1]: dissolves too slowly
- thermodynamic stability among crystalline forms [2]: most thermodynamically stable form; also recorded: most stable crystalline form

SMILES: CN[C@H]1CC[C@@H](c2ccc(Cl)c(Cl)c2)c2ccccc21 [Example T1, (1S, 4S) N-methyl-4-(3,4-dichlorophenyl)-1,2,3,4-tetrahydro-1-naphthalenamine]
- bioavailability [3]: much-improved bioavailability

- stability (change in Infrared spectrum (KBr) and X-ray diffractogram) ([4]; 3 months at 40° C. and 75% relative humidity): stable
- stability (change in Infrared spectrum (KBr) and X-ray diffractogram) ([4]; 3 months at 40° C. and 75% relative humidity, listed as Example 1): No change
- stability (change in Infrared spectrum (KBr) and X-ray diffractogram) ([4]; heated upto 140° C. for 3 hours): stable
- stability (change in Infrared spectrum (KBr) and X-ray diffractogram) ([4]; heated upto 140° C. for 3 hours, listed as Example 1): No change
- stability (change in Infrared spectrum (KBr) and X-ray diffractogram) ([4]; subjected to grinding in a pestle and mortar): stable
- stability (change in Infrared spectrum (KBr) and X-ray diffractogram) ([4]; subjected to grinding in a pestle and mortar, listed as Example 1): No change
SMILES: CN[C@H]1CC[C@@H](c2ccc(Cl)c(Cl)c2)c2ccccc21 [Form V, hydrochloride salt of (1S,4S) N-methyl-4-(3,4-dichlorophenyl)-1,2,3,4-tetrahydro-1-naphthalenamine]
